# Reference: ChEMBL document CHEMBL1201862, “PubChem BioAssay data set” (2004)
# Active and inactive are the calls of the source.
# Assays:
# [1] = target: T1, Cannabinoid receptor 2 (Homo sapiens, UniProt P34972); assay: SAR analysis of antagonists of the Cannabinoid Receptor 2 using an Image-Based Assay - Set 3. [Related pubchem assays (depositor defined):AID2013, AID2026]; assay type: functional
# [2] = target: T2, Cannabinoid receptor 1 (Homo sapiens, UniProt P21554); assay: SAR analysis of antagonists of the Cannabinoid Receptor 1 using an Image-Based Assay - Set 4. [Related pubchem assays (depositor defined):AID2013, AID2026]; assay type: functional
# T2 sequence (P21554 whole entry): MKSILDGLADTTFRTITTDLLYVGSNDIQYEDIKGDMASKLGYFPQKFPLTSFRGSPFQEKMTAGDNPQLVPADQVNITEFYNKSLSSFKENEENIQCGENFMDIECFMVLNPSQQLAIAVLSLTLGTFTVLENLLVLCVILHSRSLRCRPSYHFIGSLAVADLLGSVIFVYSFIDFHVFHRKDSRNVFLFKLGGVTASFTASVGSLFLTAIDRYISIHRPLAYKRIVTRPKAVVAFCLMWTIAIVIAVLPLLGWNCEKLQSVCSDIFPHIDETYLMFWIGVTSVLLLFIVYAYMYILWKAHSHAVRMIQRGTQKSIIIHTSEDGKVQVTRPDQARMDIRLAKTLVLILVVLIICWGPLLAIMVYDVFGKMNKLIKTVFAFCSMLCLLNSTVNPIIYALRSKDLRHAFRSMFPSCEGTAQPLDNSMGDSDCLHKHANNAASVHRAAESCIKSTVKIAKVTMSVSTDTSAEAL
# [3] = target: T1, Cannabinoid receptor 2; assay: SAR analysis of agonists of the Cannabinoid Receptor 2 using an Image-Based Assay - Set 3. [Related pubchem assays (depositor defined):AID2013, AID2026]; assay type: functional
# [4] = target: T3, G-protein coupled receptor 35 (Homo sapiens, UniProt Q9HC97); assay: SAR analysis of Antagonists of the GPR35 Receptor using an Image-Based Assay - Set 6. [Related pubchem assays (depositor defined):AID2013, AID2026]; assay type: functional
# T3 sequence (Q9HC97 whole entry): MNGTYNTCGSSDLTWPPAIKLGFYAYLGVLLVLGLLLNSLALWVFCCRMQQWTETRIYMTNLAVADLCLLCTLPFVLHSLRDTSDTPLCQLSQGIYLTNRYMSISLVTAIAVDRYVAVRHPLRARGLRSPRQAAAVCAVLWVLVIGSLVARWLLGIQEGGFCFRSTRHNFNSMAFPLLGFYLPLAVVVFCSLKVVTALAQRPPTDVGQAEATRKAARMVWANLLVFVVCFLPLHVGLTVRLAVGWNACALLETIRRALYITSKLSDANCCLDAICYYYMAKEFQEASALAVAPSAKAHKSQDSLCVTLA
# [5] = target: G-protein coupled receptor 55 (Homo sapiens, UniProt Q9Y2T6); assay: SAR Analysis of Selective Antagonists of GPR55 using an Image-Based Assay - Set 4. [Related pubchem assays (depositor defined):AID2013, AID2026]; assay type: functional;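 also: antagonism of response to 5 µM lysophosphatidylinositol agonist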
# [6] = target: T3, G-protein coupled receptor 35; assay: SAR analysis of Agonists of the GPR35 Receptor using an Image-Based Assay - Set 4. [Related pubchem assays (depositor defined):AID2013, AID2026]; assay type: functional
# [7] = target: T2, Cannabinoid receptor 1; assay: SAR analysis of agonists of the Cannabinoid Receptor 1 using an Image-Based Assay - Set 4. [Related pubchem assays (depositor defined):AID2013, AID2026]; assay type: functional
# [8] = target: Prothrombin (Bos taurus, UniProt P00735); assay: thrombin inhibition, dose response, biochemical, fluorescence polarization, uHTS hits (AID 602369); assay type: functional
# [9] = target: 72 kDa type IV collagenase (Homo sapiens, UniProt P08253); assay: Dose Response validation of uHTS RPN11 inhibitor hits using a MMP-2 Fluorescence assay.; assay type: functional
# 72 kDa type IV collagenase, sequence (P08253 whole entry): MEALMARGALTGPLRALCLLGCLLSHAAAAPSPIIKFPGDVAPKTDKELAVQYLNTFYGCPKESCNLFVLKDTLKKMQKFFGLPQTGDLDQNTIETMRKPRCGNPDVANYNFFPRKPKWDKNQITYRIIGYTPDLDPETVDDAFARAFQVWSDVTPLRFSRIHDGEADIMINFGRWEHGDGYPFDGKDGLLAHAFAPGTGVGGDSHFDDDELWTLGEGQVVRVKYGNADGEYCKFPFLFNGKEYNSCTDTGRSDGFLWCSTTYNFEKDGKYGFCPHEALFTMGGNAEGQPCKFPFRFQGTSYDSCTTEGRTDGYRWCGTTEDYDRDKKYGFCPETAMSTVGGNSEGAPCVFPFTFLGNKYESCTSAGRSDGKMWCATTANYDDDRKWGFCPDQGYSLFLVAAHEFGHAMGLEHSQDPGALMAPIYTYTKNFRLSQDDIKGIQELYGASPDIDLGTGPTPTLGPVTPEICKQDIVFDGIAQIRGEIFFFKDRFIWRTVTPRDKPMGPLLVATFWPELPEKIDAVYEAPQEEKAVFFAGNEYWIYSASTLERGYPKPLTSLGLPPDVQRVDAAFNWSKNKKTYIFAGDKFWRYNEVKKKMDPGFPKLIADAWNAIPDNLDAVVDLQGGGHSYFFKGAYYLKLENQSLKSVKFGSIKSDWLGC
# [10] = enhancers of respiration in Yfh1-depleted yeast, dose response, Friedreich's ataxia, plus single-dose screen (AID 1465); assay type: functional;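 also: yeast depleted of Yfh1p frataxin homolog grown on glycerol needing respiration; WST-1 tetrazolium dye reduction as measure of cellular dehydrogenase metabolic activity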
# [11] = target: T4, Rac GTPase-activating protein 1 (Homo sapiens, UniProt Q9H0H5); assay: MgcRacGAP GTPase-activating activity inhibitors, confirmation, biochemical, ADP Hunter fluorescence, primary and confirmatory (AID 624330); assay type: functional
# T4 sequence (Q9H0H5 whole entry): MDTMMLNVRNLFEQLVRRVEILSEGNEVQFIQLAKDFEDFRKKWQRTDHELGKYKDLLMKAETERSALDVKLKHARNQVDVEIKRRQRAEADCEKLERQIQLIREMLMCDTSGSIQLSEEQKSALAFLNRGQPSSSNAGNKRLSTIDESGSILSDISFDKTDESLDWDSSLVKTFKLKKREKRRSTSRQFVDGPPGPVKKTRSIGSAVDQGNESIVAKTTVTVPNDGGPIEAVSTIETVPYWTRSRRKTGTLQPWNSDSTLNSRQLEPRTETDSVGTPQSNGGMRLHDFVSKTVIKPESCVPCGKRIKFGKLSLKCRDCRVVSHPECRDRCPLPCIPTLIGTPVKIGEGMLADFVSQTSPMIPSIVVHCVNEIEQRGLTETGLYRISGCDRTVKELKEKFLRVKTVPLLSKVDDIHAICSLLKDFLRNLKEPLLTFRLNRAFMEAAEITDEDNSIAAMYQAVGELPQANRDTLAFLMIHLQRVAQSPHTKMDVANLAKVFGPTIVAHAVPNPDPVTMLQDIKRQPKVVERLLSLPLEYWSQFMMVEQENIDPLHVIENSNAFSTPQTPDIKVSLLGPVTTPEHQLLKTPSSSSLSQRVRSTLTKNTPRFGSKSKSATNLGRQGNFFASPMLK
# [12] = target: Intestinal-type alkaline phosphatase (Homo sapiens, UniProt P09923); assay: activation of human intestinal alkaline phosphatase – biochemical, dose response (AID 488873); assay type: functional
# Intestinal-type alkaline phosphatase (Homo sapiens, UniProt P09923), sequence (P09923 whole entry): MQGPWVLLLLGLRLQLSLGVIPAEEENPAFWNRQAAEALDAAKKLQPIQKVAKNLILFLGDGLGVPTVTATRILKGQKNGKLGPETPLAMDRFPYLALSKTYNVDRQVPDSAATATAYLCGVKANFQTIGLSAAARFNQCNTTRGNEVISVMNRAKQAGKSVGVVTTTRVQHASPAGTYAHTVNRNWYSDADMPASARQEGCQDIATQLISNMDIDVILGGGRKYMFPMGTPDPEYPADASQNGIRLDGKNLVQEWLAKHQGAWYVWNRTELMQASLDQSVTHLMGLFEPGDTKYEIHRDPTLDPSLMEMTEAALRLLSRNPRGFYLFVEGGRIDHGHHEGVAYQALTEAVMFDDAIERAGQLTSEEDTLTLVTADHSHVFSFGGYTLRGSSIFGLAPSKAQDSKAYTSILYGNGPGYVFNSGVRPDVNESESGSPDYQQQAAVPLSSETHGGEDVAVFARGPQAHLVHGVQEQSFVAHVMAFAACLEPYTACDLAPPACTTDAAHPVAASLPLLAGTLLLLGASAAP
# [13] = target: 26S proteasome non-ATPase regulatory subunit 14 (Homo sapiens, UniProt O00487); assay: inhibition of proteasome subunit RPN11 – biochemical, fluorescence polarization, uHTS hits, confirmation (AID 602368); assay type: functional
# 26S proteasome non-ATPase regulatory subunit 14, sequence (O00487 whole entry): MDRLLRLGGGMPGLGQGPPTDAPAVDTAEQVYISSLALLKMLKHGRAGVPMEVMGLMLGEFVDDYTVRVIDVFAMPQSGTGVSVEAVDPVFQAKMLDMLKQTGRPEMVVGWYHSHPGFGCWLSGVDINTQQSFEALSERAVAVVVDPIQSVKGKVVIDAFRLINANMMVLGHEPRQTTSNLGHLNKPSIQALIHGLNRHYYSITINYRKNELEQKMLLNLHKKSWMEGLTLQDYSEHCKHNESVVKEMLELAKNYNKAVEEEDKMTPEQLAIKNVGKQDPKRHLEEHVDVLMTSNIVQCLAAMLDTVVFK
# [14] = target: T5, Alkaline phosphatase, tissue-nonspecific isozyme (Homo sapiens, UniProt P05186); assay: TNAP enzyme activators, dose response, selectivity assay for mouse IAP activator project, biochemical, TNAP isozyme, mouse IAP uHTS hits (AID 488880); assay type: functional
# T5 sequence (P05186 whole entry): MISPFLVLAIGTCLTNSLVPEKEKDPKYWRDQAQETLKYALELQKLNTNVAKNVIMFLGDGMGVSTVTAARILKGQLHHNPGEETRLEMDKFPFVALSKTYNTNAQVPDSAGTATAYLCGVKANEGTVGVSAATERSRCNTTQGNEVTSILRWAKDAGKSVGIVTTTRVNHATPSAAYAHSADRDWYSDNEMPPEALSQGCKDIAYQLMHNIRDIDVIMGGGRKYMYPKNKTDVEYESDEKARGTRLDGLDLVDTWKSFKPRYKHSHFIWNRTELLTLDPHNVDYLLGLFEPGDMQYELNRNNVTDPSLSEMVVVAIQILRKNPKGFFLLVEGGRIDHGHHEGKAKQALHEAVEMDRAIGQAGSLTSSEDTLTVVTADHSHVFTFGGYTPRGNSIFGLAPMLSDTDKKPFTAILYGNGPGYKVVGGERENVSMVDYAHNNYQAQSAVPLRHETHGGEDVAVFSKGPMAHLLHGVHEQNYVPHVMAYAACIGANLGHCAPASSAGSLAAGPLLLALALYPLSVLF
# [15] = target: Intestinal-type alkaline phosphatase (Mus musculus, UniProt P24822); assay: mouse intestinal alkaline phosphatase activators, dose response, biochemical, luminescence, uHTS hits (AID 488783); assay type: functional
# Intestinal-type alkaline phosphatase (Mus musculus, UniProt P24822), sequence (P24822 whole entry): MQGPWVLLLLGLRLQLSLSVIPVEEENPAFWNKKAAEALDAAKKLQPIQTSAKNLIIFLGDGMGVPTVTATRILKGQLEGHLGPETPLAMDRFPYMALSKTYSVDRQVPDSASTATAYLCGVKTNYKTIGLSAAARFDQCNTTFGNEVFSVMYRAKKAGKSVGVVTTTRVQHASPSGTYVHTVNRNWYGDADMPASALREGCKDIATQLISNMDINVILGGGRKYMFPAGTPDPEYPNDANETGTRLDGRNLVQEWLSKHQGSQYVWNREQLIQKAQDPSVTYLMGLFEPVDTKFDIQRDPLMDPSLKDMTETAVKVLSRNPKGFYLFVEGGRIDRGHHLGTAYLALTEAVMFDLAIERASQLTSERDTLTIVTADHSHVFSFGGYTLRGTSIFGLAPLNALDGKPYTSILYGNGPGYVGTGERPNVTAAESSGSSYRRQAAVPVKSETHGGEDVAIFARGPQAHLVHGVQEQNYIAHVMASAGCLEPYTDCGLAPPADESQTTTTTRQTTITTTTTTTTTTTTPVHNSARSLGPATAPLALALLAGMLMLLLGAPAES
# [16] = inhibitors of intracellular T. cruzi replication, confirmation, NIH3T3 host cells, beta-gal luminescence (AID 2044); assay type: functional, cell-based;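 also: intracellular parasites grown in NIH/3T3 mouse fibroblasts as host cells; luminescent beta-galactosidase reporter signal from transgenic T. cruzi replicating inside host cells; inhibitors lower the luminescence signal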
# [17] = mammalian cell cytotoxicity, dose response, cytotoxicity control, plate reader, cherry-pick samples (AID 504397); assay type: functional, cell-based
# [18] = target: Voltage-gated inwardly rectifying potassium channel KCNH2 (Homo sapiens, UniProt Q12809); assay: hERG protection from proarrhythmic block, potency, dose response, cell-based, thallium flux (AID 2121); assay type: ADME
# Voltage-gated inwardly rectifying potassium channel KCNH2, sequence (Q12809 whole entry): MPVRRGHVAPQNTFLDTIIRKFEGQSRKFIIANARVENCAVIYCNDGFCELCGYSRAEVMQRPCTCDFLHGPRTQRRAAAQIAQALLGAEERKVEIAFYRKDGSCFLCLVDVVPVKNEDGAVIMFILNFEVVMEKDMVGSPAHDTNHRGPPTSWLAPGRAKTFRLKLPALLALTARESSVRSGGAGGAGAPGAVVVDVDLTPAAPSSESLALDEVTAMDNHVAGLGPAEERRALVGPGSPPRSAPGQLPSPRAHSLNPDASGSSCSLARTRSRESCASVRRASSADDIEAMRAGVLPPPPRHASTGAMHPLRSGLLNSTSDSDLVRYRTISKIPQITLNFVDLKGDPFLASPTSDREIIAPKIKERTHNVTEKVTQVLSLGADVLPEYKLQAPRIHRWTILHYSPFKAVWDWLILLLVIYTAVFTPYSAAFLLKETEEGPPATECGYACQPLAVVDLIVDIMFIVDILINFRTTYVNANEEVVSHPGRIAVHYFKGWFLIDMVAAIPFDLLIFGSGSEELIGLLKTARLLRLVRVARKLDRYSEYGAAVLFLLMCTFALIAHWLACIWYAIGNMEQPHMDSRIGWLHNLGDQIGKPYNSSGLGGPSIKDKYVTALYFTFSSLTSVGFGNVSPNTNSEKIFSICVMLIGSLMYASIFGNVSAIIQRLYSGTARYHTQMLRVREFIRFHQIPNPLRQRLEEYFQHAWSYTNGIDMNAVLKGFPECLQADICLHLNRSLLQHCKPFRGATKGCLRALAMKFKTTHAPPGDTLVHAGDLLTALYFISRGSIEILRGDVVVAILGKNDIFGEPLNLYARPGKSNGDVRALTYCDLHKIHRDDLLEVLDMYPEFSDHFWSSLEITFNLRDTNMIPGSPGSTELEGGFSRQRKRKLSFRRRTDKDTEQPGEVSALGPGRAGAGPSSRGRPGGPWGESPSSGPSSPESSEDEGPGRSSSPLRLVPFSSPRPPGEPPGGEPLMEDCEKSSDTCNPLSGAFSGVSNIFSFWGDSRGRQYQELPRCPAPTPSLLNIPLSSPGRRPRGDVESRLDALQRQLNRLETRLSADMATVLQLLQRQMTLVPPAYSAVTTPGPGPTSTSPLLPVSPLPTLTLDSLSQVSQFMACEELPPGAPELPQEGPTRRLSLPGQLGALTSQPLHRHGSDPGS
# [19] = tested on: HEK293; assay: inhibitors of LMP1-driven NF-kB reporter, dose response, cell-based, HEK293, luciferase, cherry-pick (AID 588343); assay type: functional; conditions: Homo sapiens
# [20] = target: T6, E3 ubiquitin-protein ligase XIAP (Homo sapiens, UniProt P98170); assay: Counter Screen using XIAP-Bir3 for Chemical Antagonists of Bir1/2 domains of IAP-family anti-apoptotic proteins. [Related pubchem assays (depositor defined):AID1018, AID1449, AID1514, AID1638, AID1749, AID1750, AID488957, AID488963]
# T6 sequence (P98170 whole entry): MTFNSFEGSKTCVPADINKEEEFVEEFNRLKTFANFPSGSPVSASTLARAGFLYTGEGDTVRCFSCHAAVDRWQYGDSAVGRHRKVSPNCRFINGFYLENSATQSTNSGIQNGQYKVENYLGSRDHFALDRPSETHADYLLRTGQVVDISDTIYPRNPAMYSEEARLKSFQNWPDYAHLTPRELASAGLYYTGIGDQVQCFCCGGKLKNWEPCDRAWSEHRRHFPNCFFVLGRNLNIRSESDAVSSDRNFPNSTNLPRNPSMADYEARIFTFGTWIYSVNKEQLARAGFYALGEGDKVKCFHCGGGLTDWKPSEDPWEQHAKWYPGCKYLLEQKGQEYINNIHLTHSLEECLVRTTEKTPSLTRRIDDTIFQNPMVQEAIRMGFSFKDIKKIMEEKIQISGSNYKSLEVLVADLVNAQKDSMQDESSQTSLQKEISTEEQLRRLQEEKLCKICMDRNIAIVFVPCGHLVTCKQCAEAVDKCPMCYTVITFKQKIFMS
# [21] = target: T6, E3 ubiquitin-protein ligase XIAP; assay: XIAP antagonists, biochemical, IAP family, fluorescence polarization (AID 1018); assay type: functional
# T1 sequence (P34972 whole entry): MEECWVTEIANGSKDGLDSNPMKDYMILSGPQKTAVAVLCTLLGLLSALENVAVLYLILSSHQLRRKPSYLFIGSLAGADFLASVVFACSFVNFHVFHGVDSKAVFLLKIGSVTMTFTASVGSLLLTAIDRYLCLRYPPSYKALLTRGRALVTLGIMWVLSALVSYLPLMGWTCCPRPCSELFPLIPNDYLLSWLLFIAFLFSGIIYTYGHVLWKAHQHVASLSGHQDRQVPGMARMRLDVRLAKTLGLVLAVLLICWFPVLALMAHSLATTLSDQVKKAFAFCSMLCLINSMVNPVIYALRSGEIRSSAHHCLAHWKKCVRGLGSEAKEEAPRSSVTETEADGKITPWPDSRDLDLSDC
smiles,measurement,setting,value
O=C(Cc1ccc(F)cc1)N1CCC(n2nc(-c3ccccc3)oc2=O)CC1,IC50,[1],> 32 µM (inactive)
same,IC50,[2],11.7 µM (inactive)
same,EC50,[3],> 32 µM (inactive)
same,IC50,[4],> 32 µM (inactive)
same,IC50,[5],> 32 µM (inactive)
same,EC50,[6],> 32 µM (inactive)
same,EC50,[7],> 32 µM (inactive)
Cc1cc(/C=C2\SC(=S)NC2=O)c(C)[nH]1,IC50,[8],33 µM (active)
same,IC50,[9],20.4 µM (active)
same,EC50,[10],> 100 µM (active)
same,IC50,[11],207 µM (active)
same,EC50,[12],68 µM (active)
same,IC50,[13],26.5 µM (active)
same,EC50,[14],58.1 µM (active)
same,EC50,[15],56.6 µM (active)
Oc1c(N=NC(S)=Nc2ccccc2F)c2ccccc2n1Cc1ccccc1F,EC50,[16],1.26 µM (active)
same,AC50,[17],302 µM (active)
same,EC50,[18],0.44 µM (active)
same,AC50,[19],4.06 µM (active)
CN1/C(=C\C=C2\N=C(c3ccc(F)cc3)OC2=O)C(C)(C)c2ccccc21,IC50,[20],> 12.5 µM (inactive)
same,IC50,[21],> 100 µM (not active)
